According to ChEMBL document CHEMBL2417472, “Synthesis and biological evaluation of novel benzyl-substituted (S)-phenylalanine derivatives as potent dipeptidyl peptidase 4 inhibitors” (Bioorg Med Chem, 2013):

Legend:
[1] = test system: Rattus norvegicus; assay: Antidiabetic activity in po dosed Sprague-Dawley rat assessed as inhibition of glucose excursion administered 30 mins prior glucose challenge measured over 30 to 120 mins post challenge by OGTT; type: functional, organism-based
[2] = organism: Rattus norvegicus; assay: animal or person; conditions: Sprague-Dawley, po, read-out: INH
[3] = organism: Rattus norvegicus; assay: animal or person; conditions: Sprague-Dawley, po, read-out: INH; remark: listed apart in the source
[4] = organism: Rattus norvegicus; assay: animal or person; conditions: Sprague-Dawley, po, read-out: INH; remark: listed apart in the source

## N#C[C@@H]1CCCN1C(=O)[C@@H](N)Cc1ccc(-c2cn(Cc3ccc(F)cc3)nn2)cc1
[1]
  inhibition: Dose-dependent effect
[2]
  inhibition in vivo at 10 mg/kg: 28.8%
[3]
  inhibition in vivo at 3 mg/kg: 21.7%
[4]
  inhibition in vivo at 1 mg/kg: 20.8%
